Measured values as given in PubChem BioAssay (NCI).
Where “and” joins values, the source holds several entries; their conditions need not be identical. Equal values may be shown once.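 Five compound concentrations were applied to cells in 96-well plates for 48 hours; endpoints were derived by simple linear interpolation of the resulting dose-response curve. GI50 = concentration required for 50% inhibition of growth. TGI is the concentration that stops growth completely.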

Key:
Experiment in all cases: DTP human tumour cell line panel, 48 h
SF-268 CNS = test system: SF-268 CNS
UACC-257 melanoma = test system: UACC-257 melanoma
UACC-62 melanoma = test system: UACC-62 melanoma
U251 CNS = test system: U251 CNS
KM12 colon = test system: KM12 colon
OVCAR-8 ovarian = test system: OVCAR-8 ovarian
OVCAR-5 ovarian = test system: OVCAR-5 ovarian
HCT-15 colon = test system: HCT-15 colon
A498 renal = test system: A498 renal
IGROV1 ovarian = test system: IGROV1 ovarian

CN1C(C(=O)Nc2ccccn2)=C(O)c2ccccc2S1(=O)=O
TGI (SF-268 CNS): > 100 µM
TGI (UACC-257 melanoma): > 100 µM
TGI (UACC-62 melanoma): > 100 µM
TGI (U251 CNS): > 100 µM
TGI (KM12 colon): > 100 µM
TGI (OVCAR-8 ovarian): > 100 µM
TGI (OVCAR-5 ovarian): > 100 µM
TGI (HCT-15 colon): > 100 µM

CCn1c2ccccc2c2cc(NC(=O)c3c(C)[nH]c(=O)[nH]c3=S)ccc21
TGI (UACC-257 melanoma): > 100 µM
TGI (UACC-62 melanoma): > 100 µM
TGI (A498 renal): > 100 µM
TGI (U251 CNS): > 100 µM
TGI (KM12 colon): 64.5 µM
TGI (OVCAR-8 ovarian): > 100 µM
TGI (OVCAR-5 ovarian): 68.2 µM
TGI (HCT-15 colon): > 100 µM

Brc1ccc2[nH]cc(-c3nc(-c4c[nH]c5ccncc45)cs3)c2c1
GI50 (UACC-257 melanoma): 1.92 µM
TGI (UACC-257 melanoma): 3.46 µM
GI50 (A498 renal): 1.81 µM
TGI (A498 renal): 3.22 µM
GI50 (OVCAR-5 ovarian): 1.79 µM
TGI (OVCAR-5 ovarian): 3.21 µM

Nc1ncc(Cc2nn3c(COc4ccc(Cl)cc4)nnc3s2)s1
TGI (SF-268 CNS): > 100 µM
TGI (UACC-257 melanoma): > 100 µM
TGI (UACC-62 melanoma): > 100 µM
TGI (IGROV1 ovarian): > 100 µM
TGI (KM12 colon): > 100 µM
TGI (OVCAR-8 ovarian): > 100 µM
TGI (OVCAR-5 ovarian): > 100 µM
TGI (HCT-15 colon): 19.1 µM

NC(=O)CN1CCN(c2nc(N3CCCC3)c3nc(Cl)c(NCc4ccccc4)nc3n2)CC1
TGI (SF-268 CNS): 17 µM
TGI (UACC-257 melanoma): 19.7 µM
TGI (UACC-62 melanoma): 17.2 µM
TGI (IGROV1 ovarian): 25.5 µM
TGI (U251 CNS): 15.5 µM
TGI (KM12 colon): 22 µM
TGI (OVCAR-8 ovarian): > 50 µM
TGI (OVCAR-5 ovarian): 17.9 µM
TGI (HCT-15 colon): 17.3 µM

O=C(O)C1(Cc2ccc3c(c2)CCC3)Cc2cc3c(cc2C1)CCC3
TGI (SF-268 CNS): > 100 µM
TGI (UACC-62 melanoma): > 100 µM
TGI (IGROV1 ovarian): > 100 µM
TGI (A498 renal): > 100 µM
TGI (U251 CNS): > 100 µM
TGI (KM12 colon): > 100 µM
TGI (OVCAR-8 ovarian): > 100 µM
TGI (OVCAR-5 ovarian): > 100 µM
TGI (HCT-15 colon): > 100 µM

COc1ccc(/C=C(\C#N)c2nc(-c3cc4ccccc4oc3=O)cs2)cc1
TGI (SF-268 CNS): 83.4 µM
TGI (UACC-257 melanoma): > 100 µM
TGI (UACC-62 melanoma): 49.3 µM
TGI (IGROV1 ovarian): 62.2 µM
TGI (U251 CNS): 27.3 µM
TGI (KM12 colon): > 100 µM
TGI (OVCAR-8 ovarian): 44.4 µM
TGI (OVCAR-5 ovarian): > 100 µM
TGI (HCT-15 colon): > 100 µM

COc1ccc(/C(Cl)=C(\C=O)c2ccc(Cl)cc2)cc1
TGI (SF-268 CNS): 58.7 µM
TGI (UACC-257 melanoma): 77.4 µM
TGI (UACC-62 melanoma): 32.8 µM
TGI (IGROV1 ovarian): 42.1 µM
TGI (A498 renal): 74 µM
TGI (U251 CNS): 17.7 µM
TGI (OVCAR-8 ovarian): 45.6 µM
TGI (OVCAR-5 ovarian): > 100 µM
TGI (HCT-15 colon): > 100 µM

CN(CCc1ccccn1)C(=S)N/N=C/c1ccccn1
TGI (SF-268 CNS): > 100 µM
TGI (UACC-257 melanoma): 0.895 µM
TGI (UACC-62 melanoma): 15.7 µM
TGI (IGROV1 ovarian): 1.21 µM
TGI (A498 renal): 1.3 µM
TGI (U251 CNS): > 94.9 µM
TGI (KM12 colon): 17.1 µM
TGI (OVCAR-5 ovarian): 44.6 µM
TGI (HCT-15 colon): 35.6 µM

CCCNC(=O)Cn1c(-c2ccccc2)cc2ccccc21
TGI (SF-268 CNS): > 100 µM
TGI (UACC-257 melanoma): > 100 µM
TGI (UACC-62 melanoma): > 100 µM
TGI (IGROV1 ovarian): > 100 µM
TGI (U251 CNS): > 100 µM
TGI (KM12 colon): > 100 µM
TGI (OVCAR-8 ovarian): > 100 µM
TGI (OVCAR-5 ovarian): > 100 µM
TGI (HCT-15 colon): > 100 µM

CC(=O)N/N=C1\NN(C(C)=O)C2(S1)C(=O)Nc1ccccc12 (stereo unspecified)
TGI (SF-268 CNS): > 100 µM
TGI (UACC-62 melanoma): > 100 µM
TGI (IGROV1 ovarian): > 100 µM
TGI (U251 CNS): > 100 µM
TGI (KM12 colon): > 100 µM
TGI (OVCAR-8 ovarian): > 100 µM
TGI (OVCAR-5 ovarian): > 100 µM
TGI (HCT-15 colon): > 100 µM

CC1(C)CN=C(c2ccc3ccccc3c2O)N1
TGI (SF-268 CNS): > 100 µM
TGI (UACC-257 melanoma): > 100 µM
TGI (UACC-62 melanoma): > 100 µM
TGI (IGROV1 ovarian): > 100 µM
TGI (A498 renal): > 100 µM
TGI (U251 CNS): > 100 µM
TGI (KM12 colon): > 100 µM
TGI (OVCAR-5 ovarian): > 100 µM
TGI (HCT-15 colon): > 100 µM

C#Cc1ccccc1C(=O)OC
TGI (UACC-257 melanoma): > 100 µM
TGI (UACC-62 melanoma): > 100 µM
TGI (IGROV1 ovarian): > 100 µM
TGI (A498 renal): > 100 µM
TGI (U251 CNS): > 100 µM
TGI (KM12 colon): > 100 µM
TGI (OVCAR-8 ovarian): > 100 µM
TGI (OVCAR-5 ovarian): > 100 µM
TGI (HCT-15 colon): > 100 µM

COc1cccc2c1C(=O)c1c(O)c3c(c(O)c1C2=O)C[C@](O)(C(=O)CO)CC3OC1CC(N)C(OC2CCCCO2)C(C)O1 (stereo partly specified)
TGI (SF-268 CNS): 3.04 µM
TGI (UACC-257 melanoma): 2.5 µM
TGI (UACC-62 melanoma): 1.11 µM
TGI (IGROV1 ovarian): 11.4 µM
TGI (A498 renal): 0.766 µM
TGI (U251 CNS): 0.899 µM
TGI (OVCAR-8 ovarian): 14 µM
TGI (OVCAR-5 ovarian): 2.17 µM
TGI (HCT-15 colon): 5.14 µM

Nc1ncnc2c(C3OC(CO)C(O)C3O)c[nH]c12 (stereo unspecified)
TGI (SF-268 CNS): 0.559 µM
GI50 (UACC-257 melanoma): < 0.0155 µM
TGI (UACC-257 melanoma): 0.276 µM and 0.382 µM
GI50 (UACC-62 melanoma): 0.0101 µM
TGI (UACC-62 melanoma): 0.0496 µM and 0.0377 µM
TGI (IGROV1 ovarian): 0.0637 µM and 0.0661 µM
TGI (A498 renal): 0.113 µM and 0.0973 µM
TGI (KM12 colon): 0.396 µM and 0.465 µM
TGI (OVCAR-8 ovarian): 0.0845 µM and 0.771 µM
GI50 (OVCAR-5 ovarian): < 0.0119 µM
TGI (OVCAR-5 ovarian): 0.657 µM and 0.675 µM
TGI (HCT-15 colon): 0.333 µM and 0.3 µM

CN(NC(=O)/C(=C/C=C/c1ccccc1)NC(=O)c1ccccc1)C1=C(Cl)C(=O)[N+](c2ccccc2)=CC1
TGI (SF-268 CNS): 70.4 µM
TGI (UACC-257 melanoma): > 100 µM
TGI (IGROV1 ovarian): 46.8 µM
TGI (A498 renal): > 100 µM
TGI (U251 CNS): 40.2 µM
TGI (KM12 colon): 34 µM
TGI (OVCAR-8 ovarian): 40.3 µM
TGI (OVCAR-5 ovarian): > 100 µM
TGI (HCT-15 colon): 62.8 µM

Fc1ccccc1C1SCC2=Nc3ccccc3CN21 (stereo unspecified)
TGI (SF-268 CNS): > 100 µM
TGI (UACC-257 melanoma): > 100 µM
TGI (UACC-62 melanoma): > 100 µM
TGI (A498 renal): > 100 µM
TGI (U251 CNS): > 100 µM
TGI (KM12 colon): > 100 µM
TGI (OVCAR-8 ovarian): > 100 µM
TGI (OVCAR-5 ovarian): > 100 µM
TGI (HCT-15 colon): > 100 µM

Cc1cccc(-c2cc(=O)c3c(C)ccnc3[nH]2)c1
TGI (SF-268 CNS): > 100 µM
TGI (UACC-62 melanoma): > 100 µM
TGI (IGROV1 ovarian): > 100 µM
TGI (A498 renal): > 100 µM
TGI (U251 CNS): > 100 µM
TGI (KM12 colon): 16.8 µM
TGI (OVCAR-8 ovarian): > 100 µM
TGI (OVCAR-5 ovarian): > 100 µM
TGI (HCT-15 colon): > 100 µM

O=C(O)c1cc2c(cc1CC(Cc1ccccc1)C(=O)O)CCC2 (stereo unspecified)
TGI (SF-268 CNS): > 100 µM
TGI (UACC-257 melanoma): > 100 µM
TGI (IGROV1 ovarian): > 100 µM
TGI (A498 renal): > 100 µM
TGI (U251 CNS): > 100 µM
TGI (KM12 colon): > 100 µM
TGI (OVCAR-8 ovarian): > 100 µM
TGI (OVCAR-5 ovarian): > 100 µM
TGI (HCT-15 colon): > 100 µM

CCOC(=O)Cn1c(C)nc2nn(Cc3ccccc3)cc2c1=O
TGI (SF-268 CNS): > 100 µM
TGI (UACC-62 melanoma): > 100 µM
TGI (IGROV1 ovarian): > 100 µM
TGI (A498 renal): > 100 µM
TGI (U251 CNS): > 100 µM
TGI (KM12 colon): > 100 µM
TGI (OVCAR-8 ovarian): > 100 µM
TGI (OVCAR-5 ovarian): > 100 µM
TGI (HCT-15 colon): > 100 µM

CCC[CH2][Ge]([CH2]CCC)([CH2]CCC)[O]C(=O)CCl
GI50 (SF-268 CNS): 10.2 µM
TGI (SF-268 CNS): 23.1 µM
GI50 (UACC-62 melanoma): 1.07 µM
TGI (UACC-62 melanoma): 8.67 µM
GI50 (IGROV1 ovarian): 3.27 µM
TGI (IGROV1 ovarian): 18.4 µM
GI50 (U251 CNS): 0.889 µM
TGI (U251 CNS): 16.6 µM
GI50 (KM12 colon): 1.4 µM
TGI (KM12 colon): 15.9 µM
GI50 (OVCAR-8 ovarian): 5.19 µM
TGI (OVCAR-8 ovarian): 22 µM
GI50 (OVCAR-5 ovarian): 12.3 µM
TGI (OVCAR-5 ovarian): 26.2 µM
GI50 (HCT-15 colon): 0.546 µM
TGI (HCT-15 colon): 11.5 µM

Cc1cn(C2CC(O)C(Cn3cc(Cn4nc(Br)c(=O)[nH]c4=O)nn3)O2)c(=O)[nH]c1=O (stereo unspecified)
TGI (SF-268 CNS): > 100 µM
TGI (UACC-257 melanoma): > 100 µM
TGI (UACC-62 melanoma): > 100 µM
TGI (A498 renal): > 100 µM
TGI (U251 CNS): > 100 µM
TGI (KM12 colon): > 100 µM
TGI (OVCAR-8 ovarian): > 100 µM
TGI (OVCAR-5 ovarian): > 100 µM
TGI (HCT-15 colon): > 100 µM
